Measured values from ChEMBL document CHEMBL1128045, “Antifungal lipopeptides: Structure-activity relationships of 3-hydroxyglutamine-modified pneumocandin B0 derivatives” (Bioorg Med Chem Lett, 1995).
In brackets after ≈: the same amount, converted by molar mass. Numbered stars: 1 amine (or outer) side, 2 acyl side, 3 side chain; on linkers, the order of the positions; unused ones are H or OH. Bridge positions count the residues as written; N and C are the ends. Square brackets hold non-standard residues; d marks the D form. Peptide text beside a SMILES is read from it. * marks the point of attachment. Orn(4R-OH,5R-OH) = O=C([C@H](C[C@@H](O)[C@@H](O)N[*:3])N[*:1])[*:2]; hTyr(3S-OH,4S-OH) = N[C@H](C(=O)O)[C@H](O)[C@@H](O)c1ccc(O)cc1; X12 = CC(=O)NCC[C@@H](O)[C@H](N[*:1])C(=O)[*:2]; X13 = CNCC[C@@H](O)[C@H](N[*:1])C(=O)[*:2]; Pro(3S-OH) = O=C(O)[C@H]1NCC[C@@H]1O; Hyp = O=C(O)[C@@H]1C[C@@H](O)CN1; X1 = CCC(C)CC(C)CCCCCCCCC(=O)*

Key:
[1] = target: Beta-1,3-glucan synthase (Candida albicans, UniProt O13428); assay: Tested for inhibition of Beta-1,3-glucan synthase using a crude membrane of Candida albicans (MY 1208).
Sequence of Beta-1,3-glucan synthase (O13428 whole entry): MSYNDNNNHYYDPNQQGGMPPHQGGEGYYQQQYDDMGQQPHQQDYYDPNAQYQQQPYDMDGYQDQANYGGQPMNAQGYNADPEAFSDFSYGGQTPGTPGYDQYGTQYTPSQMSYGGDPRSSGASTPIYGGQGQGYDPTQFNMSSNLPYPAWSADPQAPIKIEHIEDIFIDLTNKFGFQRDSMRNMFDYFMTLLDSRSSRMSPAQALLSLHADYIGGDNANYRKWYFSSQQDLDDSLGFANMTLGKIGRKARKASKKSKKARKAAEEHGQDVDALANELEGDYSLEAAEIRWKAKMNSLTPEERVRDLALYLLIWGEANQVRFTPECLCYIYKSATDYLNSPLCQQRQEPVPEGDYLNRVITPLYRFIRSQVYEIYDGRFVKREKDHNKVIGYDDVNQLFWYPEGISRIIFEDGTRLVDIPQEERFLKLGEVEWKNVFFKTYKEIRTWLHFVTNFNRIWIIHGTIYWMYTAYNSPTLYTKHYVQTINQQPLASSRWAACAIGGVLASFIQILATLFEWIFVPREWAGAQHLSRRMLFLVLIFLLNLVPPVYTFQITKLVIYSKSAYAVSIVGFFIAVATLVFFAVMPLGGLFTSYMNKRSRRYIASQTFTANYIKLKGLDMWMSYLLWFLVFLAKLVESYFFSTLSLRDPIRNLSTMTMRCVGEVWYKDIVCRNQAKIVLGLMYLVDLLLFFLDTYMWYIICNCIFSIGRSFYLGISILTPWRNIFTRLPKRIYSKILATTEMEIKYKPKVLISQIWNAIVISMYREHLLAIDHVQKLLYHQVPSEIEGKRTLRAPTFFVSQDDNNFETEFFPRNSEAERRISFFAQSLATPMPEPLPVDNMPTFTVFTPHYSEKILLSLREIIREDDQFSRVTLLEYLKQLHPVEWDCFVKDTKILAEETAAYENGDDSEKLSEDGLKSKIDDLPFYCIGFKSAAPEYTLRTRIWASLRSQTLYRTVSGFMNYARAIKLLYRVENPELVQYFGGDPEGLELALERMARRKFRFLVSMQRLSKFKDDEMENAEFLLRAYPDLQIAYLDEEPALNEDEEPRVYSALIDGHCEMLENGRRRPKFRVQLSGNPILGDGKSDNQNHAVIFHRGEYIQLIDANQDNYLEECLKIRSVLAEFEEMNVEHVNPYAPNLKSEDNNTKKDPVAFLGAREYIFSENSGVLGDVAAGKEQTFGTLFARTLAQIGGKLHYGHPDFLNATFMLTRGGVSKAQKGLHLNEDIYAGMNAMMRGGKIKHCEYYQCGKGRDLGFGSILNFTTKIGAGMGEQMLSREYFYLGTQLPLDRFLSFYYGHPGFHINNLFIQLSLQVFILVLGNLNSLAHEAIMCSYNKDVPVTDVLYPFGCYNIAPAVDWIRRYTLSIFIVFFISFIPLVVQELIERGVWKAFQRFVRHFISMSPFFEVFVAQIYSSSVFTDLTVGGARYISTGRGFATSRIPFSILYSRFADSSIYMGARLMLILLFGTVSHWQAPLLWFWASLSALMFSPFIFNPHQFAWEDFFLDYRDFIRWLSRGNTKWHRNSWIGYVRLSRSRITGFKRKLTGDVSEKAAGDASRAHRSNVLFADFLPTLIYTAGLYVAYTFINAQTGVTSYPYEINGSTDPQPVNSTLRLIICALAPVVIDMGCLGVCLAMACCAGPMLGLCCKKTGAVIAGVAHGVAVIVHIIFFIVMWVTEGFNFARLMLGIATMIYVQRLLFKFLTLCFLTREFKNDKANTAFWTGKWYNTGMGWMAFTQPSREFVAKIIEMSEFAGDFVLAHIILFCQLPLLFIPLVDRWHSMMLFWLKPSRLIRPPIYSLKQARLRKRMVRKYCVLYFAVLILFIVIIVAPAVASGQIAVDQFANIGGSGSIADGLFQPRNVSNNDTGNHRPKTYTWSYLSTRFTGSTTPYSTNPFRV

[2] = test system: Candida parapsilosis; assay: In vitro Fungicidal activity (MFC) against Candida parapsilosis (MY 1010).; format: functional; conditions: Lodderomyces parapsilosis
[3] = test system: Candida albicans; assay: In vitro Fungicidal activity (MFC) against Candida albicans (MY 1055).; format: functional
[4] = In vivo anti-Candida activity was determined in a mouse model of disseminated candidiasis (TOKA).; format: functional

Row | SMILES | IC50 [1] | MFC [2] | MFC [3] | ED99.9 [4]
1 | CCC(C)CC(C)CCCCCCCCC(=O)N[C@H]1C[C@@H](O)[C@@H](O)NC(=O)[C@@H]2[C@@H](O)CCN2C(=O)[C@H]([C@H](O)CCNC(C)=O)NC(=O)[C@H]([C@H](O)[C@@H](O)c2ccc(O)cc2)NC(=O)[C@@H]2C[C@@H](O)CN2C(=O)[C@H]([C@@H](C)O)NC1=O (stereo partly drawn) (X1-[Orn(4R-OH,5R-OH)]T[Hyp][hTyr(3S-OH,4S-OH)][X12][Pro(3S-OH)]; lactam 1-C) | 0.3 µM | 8 µg/mL (≈ 7.32 µM) | 4 µg/mL (≈ 3.66 µM) | 12 mg/kg
2 | CCC(C)CC(C)CCCCCCCCC(=O)N[C@H]1C[C@@H](O)[C@@H](O)NC(=O)[C@@H]2[C@@H](O)CCN2C(=O)[C@H]([C@H](O)CCNC)NC(=O)[C@H]([C@H](O)[C@@H](O)c2ccc(O)cc2)NC(=O)[C@@H]2C[C@@H](O)CN2C(=O)[C@H]([C@@H](C)O)NC1=O (stereo partly drawn) (X1-[Orn(4R-OH,5R-OH)]T[Hyp][hTyr(3S-OH,4S-OH)][X13][Pro(3S-OH)]; lactam 1-C) | 0.007 µM | 2 µg/mL (≈ 1.88 µM) | 2 µg/mL (≈ 1.88 µM) | 0.375 mg/kg
